Laboratory results published in US11046680B1, “Heteroaryl-substituted triazoles as APJ receptor agonists” (priority 2016, dated 2021).

These compounds were tested against human APJ receptor (Homo sapiens (Human), UniProt P35414) (assay: biochemical). Conditions: [35S]GTPγS binding, CHO membranes expressing human APJ receptor; read-out: Activity hAPJ SPA EC50 IP.
Type: biochemical
Description: The human APJ receptor was cloned by polymerase chain reaction and the gene encoding the receptor was subcloned in pFLAG-CMV™-3 expression vector (Sigma, Saint Louis, Mo. USA) in-house at Amgen. A GTPγS binding assay was performed on membranes prepared from CHO cells stably expressing human APJ receptor. The optimum experimental conditions for the concentrations of GDP, MgCl2, and NaCl in the assay buffer were initially determined. […] Incubation was at RT for 90 min and the microplate was read using a ViewLux™ ultra HTS Microplate Imager (PerkinElmer, Inc.).

Chain of human APJ receptor (P35414 whole entry): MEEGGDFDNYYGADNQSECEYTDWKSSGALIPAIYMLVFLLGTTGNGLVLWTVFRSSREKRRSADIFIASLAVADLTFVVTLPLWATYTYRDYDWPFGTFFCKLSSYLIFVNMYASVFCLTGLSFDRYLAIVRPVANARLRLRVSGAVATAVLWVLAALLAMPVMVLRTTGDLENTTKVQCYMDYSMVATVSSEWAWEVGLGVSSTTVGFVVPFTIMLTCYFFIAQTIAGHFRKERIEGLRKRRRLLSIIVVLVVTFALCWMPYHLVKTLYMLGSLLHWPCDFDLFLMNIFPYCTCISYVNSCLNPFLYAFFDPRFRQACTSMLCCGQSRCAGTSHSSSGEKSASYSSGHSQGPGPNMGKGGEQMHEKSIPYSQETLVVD

Compound | EC50 [nM]
COc1cccc(OC)c1-n1c(NS(=O)(=O)CCc2ccc(Cl)cc2)nnc1-c1cocn1 [Example 139.0, 2-(4-chlorophenyl)-N-(4-(2,6-dimethoxyphenyl)-5-(oxazol-4-yl)-4H-1,2,4-triazol-3-yl)ethanesulfonamide] | 118
COc1cccc(OC)c1-n1c(NS(=O)(=O)CCc2ccc(Cl)cc2)nnc1-c1cncs1 [Example 137.0, 2-(4-chlorophenyl)-N-(4-(2,6-dimethoxyphenyl)-5-(thiazol-5-yl)-4H-1,2,4-triazol-3-yl)ethanesulfonamide] | 30
COc1cccc(OC)c1-n1c(NS(=O)(=O)[C@@H](C)[C@H](OC)c2ncc(C)cn2)nnc1-c1cnccn1 [Example 337.0, (1R,2S)-N-(4-(2,6-dimethoxyphenyl)-5-(2-pyrazinyl)-4H-1,2,4-triazol-3-yl)-1-methoxy-1-(5-methyl-2-pyrimidinyl)-2-propanesulfonamide] | 6.8
COc1cccc(OC)c1-n1c(NS(=O)(=O)[C@@H](C)[C@@H](OC(C)C)c2ncc(C)cn2)nnc1-c1ccn(C)n1 [Example 355.0, (1S,2S)-N-(4-(2,6-dimethoxyphenyl)-5-(1-methyl-1H-pyrazol-3-yl)-4H-1,2,4-triazol-3-yl)-1-isopropoxy-1-(5-methylpyrimidin-2-yl)propane-2-sulfonamide] | 0.47
COc1ncnc(OC)c1-n1c(NS(=O)(=O)[C@@H](C)[C@H](C)c2ccc(Cl)cn2)nnc1-c1ccn(C)n1 [Example 534.0, (2S,3R)-3-(5-chloro-2-pyridinyl)-N-(4-(4,6-dimethoxy-5-pyrimidinyl)-5-(1-methyl-1H-pyrazol-3-yl)-4H-1,2,4-triazol-3-yl)-2-butanesulfonamide] | 0.93
COc1cccc(OC)c1-n1c(NS(=O)(=O)[C@@H](C)[C@H](OC)c2ncc(C)cn2)nnc1-c1cnn2ccccc12 [Example 415.0, (1R,2S)-N-(4-(2,6-dimethoxyphenyl)-5-(pyrazolo[1,5-a]pyridin-3-yl)-4H-1,2,4-triazo1-3-yl)-1-methoxy-1-(5-methylpyrimidin-2-yl)propane-2-sulfonamide] | 5.2
CCc1csc(-c2nnc(NS(=O)(=O)CCc3ccc(Cl)cc3)n2-c2c(OC)cccc2OC)n1 [Example 152.0, 2-(4-chlorophenyl)-N-(4-(2,6-dimethoxyphenyl)-5-(4-ethylthiazol-2-yl)-4H-1,2,4-triazol-3-yl)ethanesulfonamide] | > 12500
COc1cccc(OC)c1-n1c(NS(=O)(=O)[C@H](C)[C@@H](C)c2ncc(C)cn2)nnc1-c1n[nH]c2ccccc12 [Example 431.0, (2R,3S)-N-(4-(2,6-dimethoxyphenyl)-5-(1H-indazol-3-yl)-4H-1,2,4-triazol-3-yl)-3-(5-methylpyrimidin-2-yl)butane-2-sulfonamide] | 14
COc1cccc(OC)c1-n1c(NS(=O)(=O)[C@H](C)Cc2ncc(F)cn2)nnc1-c1nc(C2CC2)cs1 [Example 161.0] | 3.8
O=S(=O)(CCc1ccc(Cl)cc1)Nc1nnc(-c2cccs2)n1-c1ccccc1C(F)(F)F [Example 357.0, 2-(4-Chlorophenyl)-N-(5-(thiophen-2-yl)-4-(2-(trifluoromethyl)phenyl)-4H-1,2,4-triazol-3-yl)ethanesulfonamide] | > 12500
COc1ccc(N2CCOCC2=O)cc1-n1c(NS(=O)(=O)CCc2ccc(Cl)cc2)nnc1-c1cccs1 [Example 127.0, 2-(4-Chlorophenyl)-N-(4-(2-methoxy-5-(3-oxo-4-morpholinyl)phenyl)-5-(2-thiophenyl)-4H-1,2,4-triazol-3-yl)ethanesulfonamide] | 300
COc1cccc(OC)c1-n1c(NS(=O)(=O)[C@@H](C)[C@H](OC)c2ncc(C)cn2)nnc1-c1ccc(Cl)s1 [Example 334.0, (1R,2S)-N-(5-(5-chloro-2-thiophenyl)-4-(2,6-dimethoxyphenyl)-4H-1,2,4-triazol-3-yl)-1-methoxy-1-(5-methyl-2-pyrimidinyl)-2-propanesulfonamide] | 0.52
COc1cccc(OC)c1-n1c(NS(=O)(=O)[C@@H](C)[C@H](OC)c2ncc(C)cn2)nnc1-c1ccon1 [Example 90.0, (1R,2S)-N-(4-(2,6-dimethoxyphenyl)-5-(isoxazol-3-yl)-4H-1,2,4-triazol-3-yl)-1-methoxy-1-(5-methylpyrimidin-2-yl)propane-2-sulfonamide] | 33
(R)-N-(4-(2,6-dimethoxyphenyl)-5-(pyrimidin-5-yl)-4H-1,2,4-triazol-3-yl)-1-(5-fluoropyrimidin-2-yl)propane-2-sulfonamide and (S)-N-(4-(2,6-dimethoxyphenyl)-5-(pyrimidin-5-yl)-4H-1,2,4-triazol-3-yl)-1-(5-fluoropyrimidin-2-yl)propane-2-sulfonamide [Example 48.0] | 150
COc1cccc(OC)c1-n1c(NS(=O)(=O)C[C@H](O)c2ccc(Cl)cc2)nnc1-c1ccn(C)n1 (single isomer, unassigned) [Example 375.0, (R)-2-(4-Chlorophenyl)-N-(4-(2,6-dimethoxyphenyl)-5-(1-methyl-1H-pyrazol-3-yl)-4H-1,2,4-triazol-3-yl)-2-hydroxyethanesulfonamide or (R)-2-(4-chlorophenyl)-N-(4-(2,6-dimethoxyphenyl)-5-(1-methyl-1H-pyrazol-3-yl)-4H-1,2,4-triazol-3-yl)-2-hydroxyethanesulfonamide] | 5.9
COc1cccc(OC)c1-n1c(NS(=O)(=O)[C@@H](C)[C@@H](OC(C)C)c2ncc(Cl)cn2)nnc1-c1cnn2c1CCC2 [Example 447.0, (1S,2S)-1-(5-chloropyrimidin-2-yl)-N-(5-(5,6-dihydro-4H-pyrrolo[1,2-b]pyrazol-3-yl)-4-(2,6-dimethoxyphenyl)-4H-1,2,4-triazol-3-yl)-1-isopropoxypropane-2-sulfonamide] | 0.12
CCn1ccc(-c2nnc(NS(=O)(=O)[C@@H](C)[C@H](OC)c3ncc(C)cn3)n2-c2c(OC)cccc2OC)n1 [Example 387.0, (1R,2S)-N-(4-(2,6-Dimethoxyphenyl)-5-(1-ethyl-1H-pyrazol-3-yl)-4H-1,2,4-triazol-3-yl)-1-methoxy-1-(5-methylpyrimidin-2-yl)propane-2-sulfonamide] | 0.55
COc1cccc(OC)c1-n1c(NS(=O)(=O)[C@@H](C)[C@H](OC)c2ncc(Cl)cn2)nnc1-c1ncnc2cc[nH]c12 [Example 434.0, (1R,2S)-1-(5-chloropyrimidin-2-yl)-N-(4-(2,6-dimethoxyphenyl)-5-(5H-pyrrolo[3,2-d]pyrimidin-4-yl)-4H-1,2,4-triazol-3-yl)-1-methoxypropane-2-sulfonamide] | 8.6
COc1cccc(OC)c1-n1c(NS(=O)(=O)[C@@H](C)[C@H](C)c2ncc(Cl)cn2)nnc1-c1cnn2c1CCC2 [Example 445.0, (2S,3R)-3-(5-chloropyrimidin-2-yl)-N-(5-(5,6-dihydro-4H-pyrrolo[1,2-b]pyrazol-3-yl)-4-(2,6-dimethoxyphenyl)-4H-1,2,4-triazol-3-yl)butane-2-sulfonamide] | 0.089
CC(C)O[C@@H](c1ncc(Cl)cn1)[C@H](C)S(=O)(=O)Nc1nnc(-c2ccn(C)n2)n1C1(C)CC1 [Example 538.0, (1S,2S)-1-(5-chloro-2-pyrimidinyl)-N-(4-(1-methylcyclopropyl)-5-(1-methyl-1H-pyrazol-3-yl)-4H-1,2,4-triazol-3-yl)-1-(2-propanyloxy)-2-propanesulfonamide] | 20
COc1cccc(OC)c1-n1c(NS(=O)(=O)[C@@H](C)[C@H](OC)c2ncc(C)cn2)nnc1-c1ncnc2cc[nH]c12 [Example 435.0, (1R,2S)-N-(4-(2,6-dimethoxyphenyl)-5-(5H-pyrrolo[3,2-d]pyrimidin-4-yl)-4H-1,2,4-triazol-3-yl)-1-methoxy-1-(5-methylpyrimidin-2-yl)propane-2-sulfonamide] | 180
COc1cnc([C@@H](C)[C@H](C)S(=O)(=O)Nc2nnc(-c3cnn4c3CCC4)n2-c2c(OC)cccc2OC)cn1 [Example 486.0, (2S,3R)-N-(5-(5,6-dihydro-4H-pyrrolo[1,2-b]pyrazo1-3-yl)-4-(2,6-dimethoxyphenyl)-4H-1,2,4-triazol-3-yl)-3-(5-methoxypyrazin-2-yl)butane-2-sulfonamide] | 0.29
COc1ncnc(OC)c1-n1c(NS(=O)(=O)[C@@H](C)[C@H](OC)c2ncc(Cl)cn2)nnc1-c1cnn2ccccc12 [Example 439.0, (1R,2S)-1-(5-chloropyrimidin-2-yl)-N-(4-(4,6-dimethoxypyrimidin-5-yl)-5-(pyrazolo[1,5-a]pyridin-3-yl)-4H-1,2,4-triazol-3-yl)-1-methoxypropane-2-sulfonamide] | 0.82
COc1cccc(OC)c1-n1c(NS(=O)(=O)[C@@H](C)[C@H](OC)c2ncc(C)cn2)nnc1-c1n[nH]c2ccccc12 [Example 411.0] | 58
COc1cccc(OC)c1-n1c(NS(=O)(=O)CCc2ccc(Cl)cc2)nnc1-c1nccs1 [Example 136.0, 2-(4-chlorophenyl)-N-(4-(2,6-dimethoxyphenyl)-5-(thiazol-2-yl)-4H-1,2,4-triazol-3-yl)ethanesulfonamide] | 35
(2R,3S)-N-(4-(2,6-dimethoxyphenyl)-5-(1-methyl-1H-pyrazol-3-yl)-4H-1,2,4-triazol-3-yl)-3-(5-methyl-1-oxido-2-pyrazinyl)-2-butanesulfonamide and (2S,3R)-N-(4-(2,6-dimethoxyphenyl)-5-(1-methyl-1H-pyrazol-3-yl)-4H-1,2,4-triazol-3-yl)-3-(5-methyl-1-oxido-2-pyrazinyl)-2-butanesulfonamide [Example 280.0] | 3.5
COc1ccc([C@@H](C)[C@H](C)S(=O)(=O)Nc2nnc(-c3ccn(C)n3)n2-c2c(OC)ncnc2OC)nc1 [Example 458.0, (2S,3R)-N-(4-(4,6-dimethoxy-5-pyrimidinyl)-5-(1-methyl-1H-pyrazol-3-yl)-4H-1,2,4-triazol-3-yl)-3-(5-methoxy-2-pyridinyl)-2-butanesulfonamide] | 2.8
